Measured values from patent US20230085307A1, “PYRIDAZINONE COMPOUND AND HERBICIDE” (NISSAN CHEMICAL CORPORATION, priority 2019, published 2023).

Tests used:
[1] = tested on: lambsquarters; assay: Test Example 5: herbicidal effect by foliage application, plastic box (Table 20, symbol O); type: in vivo, lambsquarters (Chenopodium album); details: foliage application, 320 g/ha, evaluated three weeks after application
Method in brief: (§1)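 Foliar spray test: emulsion formulation diluted in water to a set application rate, sprayed onto 14-day-old plants raised in diluvial soil at 25° C to 30° C under glass. Both herbicidal effect and crop effect rated visually three weeks later.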

[2] = tested on: redroot pigweed; assay: Test Example 5: herbicidal effect by foliage application, plastic box (Table 20, symbol N); type: in vivo, redroot pigweed (Amaranthus retroflexus); details: foliage application, 320 g/ha, evaluated three weeks after application
Method in brief: as §1

[3] = tested on: lambsquarters; assay: Test Example 4: herbicidal effect by soil treatment (Table 19, symbol O); type: in vivo, lambsquarters (Chenopodium album); details: amount of applied herbicide 320 g/ha
Method in brief: (§2)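 Step 1: sow seeds in sterilized diluvial soil, cover ~1.5 cm. Step 2: spray diluted emulsion onto soil surface at predetermined rate. Step 3: greenhouse, 25–30° C, three weeks. Step 4: grade effect on each plant by earlier criteria.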

[4] = tested on: blackgrass; assay: Test Example 5: herbicidal effect by foliage application, plastic box (Table 20, symbol J); type: in vivo, blackgrass (Alopecurus myosuroides); details: foliage application, 320 g/ha, evaluated three weeks after application
Method in brief: as §1

[5] = tested on: southern crabgrass; assay: Test Example 4: herbicidal effect by soil treatment (Table 19, symbol F); type: in vivo, southern crabgrass (Digitaria ciliaris); details: amount of applied herbicide 320 g/ha
Method in brief: as §2

[6] = tested on: rice flat sedge; assay: Test Example 3: herbicidal effect by foliage application, Wagner pot (Table 18, symbol E); type: in vivo, rice flat sedge (Cyperus iria); details: amount of applied herbicide 320 g/ha
Method in brief: (§3)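 Plants were sown in alluvial soil held under 0.1–0.5 cm standing water and grown 14 days in a greenhouse at 25–30 °C. An emulsifiable formulation, water-diluted to the set dose, was then sprayed onto the foliage, and effects were scored three weeks later using previously defined criteria.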

[7] = tested on: Italian ryegrass; assay: Test Example 5: herbicidal effect by foliage application, plastic box (Table 20, symbol K); type: in vivo, Italian ryegrass (Lolium multiflorum); details: foliage application, 320 g/ha, evaluated three weeks after application
Method in brief: as §1

[8] = tested on: windgrass; assay: Test Example 5: herbicidal effect by foliage application, plastic box (Table 20, symbol L); type: in vivo, windgrass (Apera spica-venti); details: foliage application, 320 g/ha, evaluated three weeks after application
Method in brief: as §1

[9] = tested on: barnyard grass; assay: Test Example 5: herbicidal effect by foliage application, plastic box (Table 20, symbol H); type: in vivo, barnyard grass (Echinochloa crus-galli); details: foliage application, 320 g/ha, evaluated three weeks after application
Method in brief: as §1

[10] = tested on: redroot pigweed; assay: Test Example 4: herbicidal effect by soil treatment (Table 19, symbol N); type: in vivo, redroot pigweed (Amaranthus retroflexus); details: amount of applied herbicide 320 g/ha
Method in brief: as §2

[11] = tested on: velvetleaf; assay: Test Example 4: herbicidal effect by soil treatment (Table 19, symbol M); type: in vivo, velvetleaf (Abutilon theophrasti); details: amount of applied herbicide 320 g/ha
Method in brief: as §2

[12] = tested on: Italian ryegrass; assay: Test Example 4: herbicidal effect by soil treatment (Table 19, symbol K); type: in vivo, Italian ryegrass (Lolium multiflorum); details: amount of applied herbicide 320 g/ha
Method in brief: as §2

[13] = tested on: barnyard grass; assay: Test Example 4: herbicidal effect by soil treatment (Table 19, symbol H); type: in vivo, barnyard grass (Echinochloa crus-galli); details: amount of applied herbicide 320 g/ha
Method in brief: as §2

[14] = tested on: southern crabgrass; assay: Test Example 5: herbicidal effect by foliage application, plastic box (Table 20, symbol F); type: in vivo, southern crabgrass (Digitaria ciliaris); details: foliage application, 320 g/ha, evaluated three weeks after application
Method in brief: as §1

[15] = tested on: green foxtail; assay: Test Example 4: herbicidal effect by soil treatment (Table 19, symbol G); type: in vivo, green foxtail (Setaria viridis); details: amount of applied herbicide 320 g/ha
Method in brief: as §2

[16] = tested on: wild oat; assay: Test Example 5: herbicidal effect by foliage application, plastic box (Table 20, symbol I); type: in vivo, wild oat (Avena fatua); details: foliage application, 320 g/ha, evaluated three weeks after application
Method in brief: as §1

[17] = tested on: barnyard grass; assay: Test Example 3: herbicidal effect by foliage application, Wagner pot (Table 18, symbol H); type: in vivo, barnyard grass (Echinochloa crus-galli); details: amount of applied herbicide 320 g/ha
Method in brief: as §3

[18] = tested on: Japanese bulrush; assay: Test Example 2: herbicidal activity, application during weed generation under submerged conditions (Table 17, symbol B); type: in vivo, Japanese bulrush (Schoenoplectus juncoides); details: AAH 320 g/ha; application during weed generation, submerged conditions
Method in brief: (§4)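 Alluvial soil in Wagner pots was flooded to 4 cm depth and sown with the three weeds together; pots were kept in a greenhouse at 25° C. to 30° C. At the one to two leaf stage, an emulsion formulation diluted in water to a set rate went onto the water surface; scored three weeks later.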

[19] = tested on: chickweed; assay: Test Example 4: herbicidal effect by soil treatment (Table 19, symbol P); type: in vivo, common chickweed (Stellaria media); details: amount of applied herbicide 320 g/ha
Method in brief: as §2

[20] = tested on: wild oat; assay: Test Example 4: herbicidal effect by soil treatment (Table 19, symbol I); type: in vivo, wild oat (Avena fatua); details: amount of applied herbicide 320 g/ha
Method in brief: as §2

[21] = tested on: late watergrass; assay: Test Example 2: herbicidal activity, application during weed generation under submerged conditions (Table 17, symbol A); type: in vivo, late watergrass (Echinochloa oryzicola); details: AAH 320 g/ha; application during weed generation, submerged conditions
Method in brief: as §4

[22] = tested on: persian speedwell; assay: Test Example 5: herbicidal effect by foliage application, plastic box (Table 20, symbol R); type: in vivo, Persian speedwell (Veronica persica); details: foliage application, 320 g/ha, evaluated three weeks after application
Method in brief: as §1

Cc1nn(C)c(=O)c(-c2c(-c3cccc(OC(C)(C)C)c3)sc3ccc(F)cc23)c1O [2-223]
herbicidal effect on O: lambsquarters (criteria 0-5) [1]: 4 (Herbicidal rate of 70% or more and less than 90%)
herbicidal effect on N: redroot pigweed (criteria 0-5) [2]: 4 (Herbicidal rate of 70% or more and less than 90%)
herbicidal effect on O: lambsquarters [3]: 3 (Herbicidal rate of 40% or more and less than 70%)
herbicidal effect on J: blackgrass (criteria 0-5) [4]: 0 (Herbicidal rate of 5% or less (almost no effect))
herbicidal effect on F: southern crabgrass [5]: 4 (Herbicidal rate of 70% or more and less than 90%)
herbicidal effect on E: rice flat sedge [6]: 4 (Herbicidal rate of 70% or more and less than 90%)
herbicidal effect on K: Italian ryegrass (criteria 0-5) [7]: 1 (Herbicidal rate of 5% or more and less than 20%)
herbicidal effect on L: windgrass (criteria 0-5) [8]: 5 (Herbicidal rate of 90% or more (almost completely withered))
herbicidal effect on H: barnyard grass (criteria 0-5) [9]: 4 (Herbicidal rate of 70% or more and less than 90%)
herbicidal effect on N: redroot pigweed [10]: 3 (Herbicidal rate of 40% or more and less than 70%)
herbicidal effect on M: velvetleaf [11]: 1 (Herbicidal rate of 5% or more and less than 20%)
herbicidal effect on K: Italian ryegrass [12]: 0 (Herbicidal rate of 5% or less (almost no effect))
herbicidal effect on H: barnyard grass [13]: 3 (Herbicidal rate of 40% or more and less than 70%)
herbicidal effect on F: southern crabgrass (criteria 0-5) [14]: 3 (Herbicidal rate of 40% or more and less than 70%)
herbicidal effect on G: green foxtail [15]: 3 (Herbicidal rate of 40% or more and less than 70%)
herbicidal effect on I: wild oat (criteria 0-5) [16]: 1 (Herbicidal rate of 5% or more and less than 20%)
herbicidal effect on H: barnyard grass [17]: 5 (Herbicidal rate of 90% or more (almost completely withered))
herbicidal effect rating, B: Japanese bulrush [18]: 2 (Herbicidal rate of 20% or more and less than 40%)
herbicidal effect on P: chickweed [19]: 4 (Herbicidal rate of 70% or more and less than 90%)
herbicidal effect on I: wild oat [20]: 0 (Herbicidal rate of 5% or less (almost no effect))
herbicidal effect rating, A: late watergrass [21]: 3 (Herbicidal rate of 40% or more and less than 70%)
herbicidal effect on R: persian speedwell (criteria 0-5) [22]: 5 (Herbicidal rate of 90% or more (almost completely withered))

CCCC(=O)Oc1c(C)nn(C)c(=O)c1-c1c(-c2ccc(C(F)F)cc2)sc2ccc(F)cc12 [2-228]
herbicidal effect on O: lambsquarters (criteria 0-5) [1]: 5 (Herbicidal rate of 90% or more (almost completely withered))
herbicidal effect on N: redroot pigweed (criteria 0-5) [2]: 5 (Herbicidal rate of 90% or more (almost completely withered))
herbicidal effect on O: lambsquarters [3]: 4 (Herbicidal rate of 70% or more and less than 90%)
herbicidal effect on J: blackgrass (criteria 0-5) [4]: 3 (Herbicidal rate of 40% or more and less than 70%)
herbicidal effect on F: southern crabgrass [5]: 2 (Herbicidal rate of 20% or more and less than 40%)
herbicidal effect on E: rice flat sedge [6]: 5 (Herbicidal rate of 90% or more (almost completely withered))
herbicidal effect on K: Italian ryegrass (criteria 0-5) [7]: 3 (Herbicidal rate of 40% or more and less than 70%)
herbicidal effect on L: windgrass (criteria 0-5) [8]: 0 (Herbicidal rate of 5% or less (almost no effect))
herbicidal effect on H: barnyard grass (criteria 0-5) [9]: 5 (Herbicidal rate of 90% or more (almost completely withered))
herbicidal effect on N: redroot pigweed [10]: 4 (Herbicidal rate of 70% or more and less than 90%)
herbicidal effect on M: velvetleaf [11]: 3 (Herbicidal rate of 40% or more and less than 70%)
herbicidal effect on K: Italian ryegrass [12]: 0 (Herbicidal rate of 5% or less (almost no effect))
herbicidal effect on H: barnyard grass [13]: 5 (Herbicidal rate of 90% or more (almost completely withered))
herbicidal effect on F: southern crabgrass (criteria 0-5) [14]: 4 (Herbicidal rate of 70% or more and less than 90%)
herbicidal effect on G: green foxtail [15]: 4 (Herbicidal rate of 70% or more and less than 90%)
herbicidal effect on I: wild oat (criteria 0-5) [16]: 0 (Herbicidal rate of 5% or less (almost no effect))
herbicidal effect on H: barnyard grass [17]: 5 (Herbicidal rate of 90% or more (almost completely withered))
herbicidal effect rating, B: Japanese bulrush [18]: 3 (Herbicidal rate of 40% or more and less than 70%)
herbicidal effect on P: chickweed [19]: 4 (Herbicidal rate of 70% or more and less than 90%)
herbicidal effect on I: wild oat [20]: 0 (Herbicidal rate of 5% or less (almost no effect))
herbicidal effect rating, A: late watergrass [21]: 3 (Herbicidal rate of 40% or more and less than 70%)
herbicidal effect on R: persian speedwell (criteria 0-5) [22]: 5 (Herbicidal rate of 90% or more (almost completely withered))

CCSc1ccc(-c2sc3ccc(F)cc3c2-c2c(O)c(C)nn(C)c2=O)cc1 [2-244]
herbicidal effect on O: lambsquarters (criteria 0-5) [1]: 5 (Herbicidal rate of 90% or more (almost completely withered))
herbicidal effect on N: redroot pigweed (criteria 0-5) [2]: 5 (Herbicidal rate of 90% or more (almost completely withered))
herbicidal effect on O: lambsquarters [3]: 4 (Herbicidal rate of 70% or more and less than 90%)
herbicidal effect on J: blackgrass (criteria 0-5) [4]: 5 (Herbicidal rate of 90% or more (almost completely withered))
herbicidal effect on F: southern crabgrass [5]: 5 (Herbicidal rate of 90% or more (almost completely withered))
herbicidal effect on E: rice flat sedge [6]: 5 (Herbicidal rate of 90% or more (almost completely withered))
herbicidal effect on K: Italian ryegrass (criteria 0-5) [7]: 5 (Herbicidal rate of 90% or more (almost completely withered))
herbicidal effect on L: windgrass (criteria 0-5) [8]: 5 (Herbicidal rate of 90% or more (almost completely withered))
herbicidal effect on H: barnyard grass (criteria 0-5) [9]: 5 (Herbicidal rate of 90% or more (almost completely withered))
herbicidal effect on N: redroot pigweed [10]: 5 (Herbicidal rate of 90% or more (almost completely withered))
herbicidal effect on M: velvetleaf [11]: 2 (Herbicidal rate of 20% or more and less than 40%)
herbicidal effect on K: Italian ryegrass [12]: 4 (Herbicidal rate of 70% or more and less than 90%)
herbicidal effect on H: barnyard grass [13]: 4 (Herbicidal rate of 70% or more and less than 90%)
herbicidal effect on F: southern crabgrass (criteria 0-5) [14]: 5 (Herbicidal rate of 90% or more (almost completely withered))
herbicidal effect on G: green foxtail [15]: 5 (Herbicidal rate of 90% or more (almost completely withered))
herbicidal effect on I: wild oat (criteria 0-5) [16]: 5 (Herbicidal rate of 90% or more (almost completely withered))
herbicidal effect on H: barnyard grass [17]: 5 (Herbicidal rate of 90% or more (almost completely withered))
herbicidal effect rating, B: Japanese bulrush [18]: 3 (Herbicidal rate of 40% or more and less than 70%)
herbicidal effect on P: chickweed [19]: 1 (Herbicidal rate of 5% or more and less than 20%)
herbicidal effect on I: wild oat [20]: 0 (Herbicidal rate of 5% or less (almost no effect))
herbicidal effect rating, A: late watergrass [21]: 5 (Herbicidal rate of 90% or more (almost completely withered))
herbicidal effect on R: persian speedwell (criteria 0-5) [22]: 5 (Herbicidal rate of 90% or more (almost completely withered))
